Data taken from PubChem BioAssay (NCI).
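Grown in 96-well plates, cells were treated for 48 hours with each compound at five concentrations. Insufficient inhibition: endpoint recorded as highest concentration tested. Here, GI50 denotes the concentration required for 50% inhibition of growth. Definition used: TGI = concentration required for complete inhibition of growth.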

Tests used:
Test in all cases: NCI-60 cell line screen, 48 h
[1] = system: LOX IMVI melanoma
[2] = system: HL-60(TB) leukemia
[3] = system: SNB-75 CNS
[4] = system: 786-0 renal
[5] = system: CCRF-CEM leukemia
[6] = system: SK-OV-3 ovarian
[7] = system: OVCAR-3 ovarian
[8] = system: SNB-19 CNS
[9] = system: MDA-MB-231 breast
[10] = system: COLO 205 colon

With `C=C1C(=O)O[C@H]2[C@H]1CC/C(COC(=O)NCc1ccc(Cn3c(=O)sn(CCCl)c3=O)cc1)=C\CC[C@@]1(C)O[C@@H]21` as the compound, how does the GI50 [1] read?
Its GI50 is 1.69 µM.

What about the TGI [1] of the same compound?
The TGI was 3.12 µM.

And the GI50 [2]?
The GI50 was 1.92 µM.

And the TGI [2]?
The TGI was 4.96 µM.

What about the GI50 [3] of the same compound?
Its GI50 is 7.65 µM.

What about the TGI [3] of the same compound?
The TGI was 21 µM.

And the GI50 [4]?
Its GI50 is 1.79 µM.

And the TGI [4]?
Its TGI is 3.27 µM.

What about the GI50 [5] of the same compound?
Its GI50 is 1.73 µM.

What about the TGI [5] of the same compound?
The TGI was 7 µM.

And the GI50 [6]?
The GI50 was 16.1 µM.

What about the TGI [6] of the same compound?
Its TGI is 29.7 µM.

And the GI50 [7]?
Its GI50 is 1.53 µM.

And the TGI [7]?
The TGI was 2.88 µM.

And the GI50 [8]?
The GI50 was 11.9 µM.

And the TGI [8]?
The TGI was 26.1 µM.

What about the GI50 [9] of the same compound?
Its GI50 is 1.89 µM.

And the TGI [9]?
Its TGI is 3.68 µM.

And the GI50 [10]?
Its GI50 is 1.84 µM.

What about the TGI [10] of the same compound?
Its TGI is 3.6 µM.

How did the GI50 [1] turn out when `Nc1c(C(=O)c2cccc(-c3ccncc3)c2)cnn1-c1ccc(F)cc1F` was run?
The GI50 was 14.3 µM.

What about the TGI [1] of the same compound?
The TGI was over 25 µM.

What about the GI50 [2] of the same compound?
Its GI50 is 5.57 µM.

And the TGI [2]?
The TGI was over 25 µM.

What about the GI50 [3] of the same compound?
Its GI50 is 4.99 µM.

What about the TGI [3] of the same compound?
Its TGI is over 25 µM.

What about the GI50 [4] of the same compound?
The GI50 was over 25 µM.

What about the TGI [4] of the same compound?
Its TGI is over 25 µM.

And the GI50 [5]?
Its GI50 is 17 µM.

And the TGI [5]?
The TGI was over 25 µM.

And the GI50 [6]?
The GI50 was 19.8 µM.

And the TGI [6]?
Its TGI is over 25 µM.

What about the GI50 [7] of the same compound?
The GI50 was 9.08 µM.

What about the TGI [7] of the same compound?
The TGI was over 25 µM.

What about the GI50 [8] of the same compound?
Its GI50 is over 19.3 µM.

And the TGI [8]?
The TGI was over 25 µM.

And the GI50 [9]?
The GI50 was 15.2 µM.

What about the TGI [9] of the same compound?
Its TGI is over 25 µM.

And the GI50 [10]?
Its GI50 is 2.09 µM.

And the TGI [10]?
Its TGI is over 21.4 µM.

For `COc1ccc(C(=O)c2cc(OC)c(OC)c(OC)c2)cc1OC(=O)CCl`, which GI50 [1] is on record?
The GI50 was under 0.0199 µM.

What about the TGI [1] of the same compound?
The TGI was over 100 µM.

And the GI50 [2]?
Its GI50 is under 0.0152 µM.

And the TGI [2]?
The TGI was under 0.025 µM.

And the GI50 [3]?
The GI50 was 0.0257 µM.

What about the TGI [3] of the same compound?
Its TGI is over 100 µM.

What about the GI50 [4] of the same compound?
The GI50 was 0.554 µM.

What about the TGI [4] of the same compound?
Its TGI is over 100 µM.

And the GI50 [5]?
Its GI50 is 0.0297 µM.

What about the TGI [5] of the same compound?
Its TGI is over 100 µM.

What about the GI50 [6] of the same compound?
The GI50 was 0.163 µM.

And the TGI [6]?
The TGI was over 100 µM.

And the GI50 [7]?
Its GI50 is 0.0287 µM.

What about the GI50 [8] of the same compound?
Its GI50 is under 0.0283 µM.

And the TGI [8]?
Its TGI is over 100 µM.

And the GI50 [9]?
Its GI50 is 0.0362 µM.

And the GI50 [10]?
The GI50 was 1.21 µM.

And the TGI [10]?
The TGI was 15.6 µM.

How did the GI50 [1] turn out when `COc1ccc(-c2c[nH]c(C(=O)O)c2-c2cc(OC)c(OC)c(OC)c2)cc1` was run?
The GI50 was 6.69 µM.

What about the TGI [1] of the same compound?
Its TGI is over 100 µM.

What about the GI50 [2] of the same compound?
The GI50 was 3.06 µM.

And the TGI [2]?
Its TGI is 9.59 µM.

And the GI50 [4]?
The GI50 was 6.63 µM.

And the TGI [4]?
The TGI was over 100 µM.

What about the GI50 [5] of the same compound?
Its GI50 is 4.08 µM.

And the TGI [5]?
Its TGI is over 100 µM.

What about the GI50 [6] of the same compound?
The GI50 was 5.82 µM.

And the TGI [6]?
The TGI was over 100 µM.

What about the GI50 [7] of the same compound?
Its GI50 is 2.74 µM.

What about the TGI [7] of the same compound?
The TGI was 8.05 µM.

And the GI50 [8]?
Its GI50 is 7.24 µM.

And the TGI [8]?
Its TGI is over 100 µM.

And the GI50 [9]?
The GI50 was 12.4 µM.

What about the TGI [9] of the same compound?
The TGI was over 100 µM.

And the GI50 [10]?
The GI50 was 3.31 µM.

What about the TGI [10] of the same compound?
The TGI was 17 µM.

Which GI50 [1] does the source give for `CN(O)c1nc(N(C)O)nc(N2CCOCC2)n1` here?
The GI50 was 1.67 µM.

And the TGI [1]?
Its TGI is over 100 µM.

And the GI50 [2]?
Its GI50 is 16 µM.

What about the TGI [2] of the same compound?
Its TGI is over 100 µM.

And the GI50 [3]?
The GI50 was 27.2 µM.

What about the TGI [3] of the same compound?
The TGI was over 100 µM.

What about the GI50 [4] of the same compound?
The GI50 was 3.47 µM.

What about the TGI [4] of the same compound?
Its TGI is 74 µM.

What about the GI50 [5] of the same compound?
The GI50 was 0.793 µM.

And the TGI [5]?
Its TGI is over 100 µM.

And the GI50 [6]?
Its GI50 is 12.6 µM.

And the TGI [6]?
Its TGI is over 100 µM.

And the GI50 [7]?
The GI50 was 10.2 µM.

And the TGI [7]?
The TGI was over 100 µM.

And the GI50 [8]?
Its GI50 is 7.35 µM.

And the TGI [8]?
The TGI was over 100 µM.

What about the GI50 [9] of the same compound?
Its GI50 is 7 µM.

What about the TGI [9] of the same compound?
The TGI was over 100 µM.

What about the GI50 [10] of the same compound?
Its GI50 is 3.69 µM.

What about the TGI [10] of the same compound?
The TGI was over 100 µM.

For `CC(C)[C@H](N)C(=O)N1CCC[C@H]1B(O)O`, which GI50 [1] is on record?
Its GI50 is over 100 µM.

What about the TGI [1] of the same compound?
Its TGI is over 100 µM.

What about the GI50 [2] of the same compound?
Its GI50 is over 100 µM.

And the TGI [2]?
The TGI was over 100 µM.

And the GI50 [3]?
Its GI50 is over 100 µM.

What about the TGI [3] of the same compound?
Its TGI is over 100 µM.

And the GI50 [4]?
The GI50 was over 100 µM.

What about the TGI [4] of the same compound?
The TGI was over 100 µM.

What about the GI50 [5] of the same compound?
Its GI50 is over 100 µM.

And the TGI [5]?
Its TGI is over 100 µM.

What about the GI50 [6] of the same compound?
Its GI50 is over 100 µM.

And the TGI [6]?
The TGI was over 100 µM.

What about the GI50 [7] of the same compound?
Its GI50 is over 100 µM.

What about the TGI [7] of the same compound?
The TGI was over 100 µM.

And the GI50 [8]?
Its GI50 is over 100 µM.

What about the TGI [8] of the same compound?
Its TGI is over 100 µM.

What about the GI50 [9] of the same compound?
Its GI50 is over 100 µM.

What about the TGI [9] of the same compound?
The TGI was over 100 µM.

And the GI50 [10]?
The GI50 was over 100 µM.

And the TGI [10]?
Its TGI is over 100 µM.

Which TGI [1] does the source give for `COc1ccc(C2=CC(c3ccc4c(c3)OCO4)c3c(c4ccccc4oc3=O)O2)cc1OC` (stereo not given) here?
Its TGI is over 100 µM.

What about the TGI [2] of the same compound?
Its TGI is 1.67 µM.

What about the TGI [3] of the same compound?
Its TGI is over 21.4 µM.

And the TGI [4]?
The TGI was over 100 µM.

What about the TGI [5] of the same compound?
The TGI was over 100 µM.

And the TGI [6]?
The TGI was over 100 µM.

And the TGI [8]?
The TGI was over 100 µM.

And the TGI [9]?
The TGI was over 100 µM.

And the TGI [10]?
Its TGI is over 22.6 µM.
